In PubChem BioAssay (NCI):
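Method: 48-hour compound exposure of cells in 96-well plates, five concentrations, linear interpolation of endpoints. The concentration for 50% growth inhibition is given as GI50. TGI denotes the concentration required for complete inhibition of growth.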

Experiments:
Assay in all cases: NCI tumour cell line growth inhibition, 48 h
HS 578T breast = test system: HS 578T breast
NCI/ADR-RES ovarian = test system: NCI/ADR-RES ovarian
SF-268 CNS = test system: SF-268 CNS
NCI-H460 lung = test system: NCI-H460 lung
EKVX NSCLC = test system: EKVX NSCLC
MDA-MB-231 breast = test system: MDA-MB-231 breast
HCC-2998 colon = test system: HCC-2998 colon
SNB-19 CNS = test system: SNB-19 CNS
SF-539 CNS = test system: SF-539 CNS
BT-549 breast = test system: BT-549 breast
HOP-92 NSCLC = test system: HOP-92 NSCLC
DLD-1 colon = test system: DLD-1 colon
P388/ADR leukemia = test system: P388/ADR leukemia

Work on `CC[C@]12C=CCN3CC[C@@]4(c5cc(Br)c(OC)cc5N(C)[C@H]4[C@@](O)(C(=O)N[C@@H](Cc4ccc(O)cc4)C(=O)OC)[C@@H]1O)[C@@H]32` yielded a TGI (HS 578T breast) of 54.2 µM, a TGI (NCI/ADR-RES ovarian) of 62.3 µM and a TGI (SF-268 CNS) of 52.4 µM. For the same compound, the TGI (NCI-H460 lung) was 40.5 µM, the TGI (EKVX NSCLC) was greater than 100 µM and the TGI (MDA-MB-231 breast) was 30.6 µM. It also gave a TGI (HCC-2998 colon) of 94.6 µM, a TGI (SNB-19 CNS) greater than 100 µM and a TGI (SF-539 CNS) of 36.6 µM. The TGI (BT-549 breast) was 41.4 µM.

`C[C@]12CC[C@H](O)CC1=CC[C@@H]1[C@@H]2CC[C@]2(C)C(=N/O)/C(=C/c3ccc([N+](=O)[O-])cc3)C[C@@H]12` showed a TGI (HS 578T breast) of 63.5 µM, a TGI (NCI/ADR-RES ovarian) of 25.9 µM and a TGI (SF-268 CNS) of 24.8 µM. For the same compound, the TGI (NCI-H460 lung) was 18.5 µM, the TGI (EKVX NSCLC) was 7.37 µM and the TGI (HCC-2998 colon) was 23 µM. It also gave a TGI (SNB-19 CNS) of 22.4 µM, a TGI (HOP-92 NSCLC) of 14.9 µM and a TGI (SF-539 CNS) of 19.3 µM. The TGI (BT-549 breast) was 26.3 µM.

`O=C(c1cc2c(c3ccccc13)NCCN=C2C(F)(F)F)C(F)(F)F` was tested, and the TGI (HS 578T breast) was 40.6 µM, the TGI (NCI/ADR-RES ovarian) was greater than 100 µM and the TGI (SF-268 CNS) was greater than 100 µM. For the same compound, the TGI (NCI-H460 lung) was 34.4 µM, the TGI (EKVX NSCLC) was greater than 100 µM and the TGI (MDA-MB-231 breast) was 51.4 µM. For the same compound, the TGI (HCC-2998 colon) was 33 µM, the TGI (HOP-92 NSCLC) was 86.6 µM and the TGI (SF-539 CNS) was 54.9 µM.

Work on `CC(=O)NNC(=O)C1CCCCN1` (centres undefined) yielded a TGI (HS 578T breast) greater than 100 µM, a TGI (SF-268 CNS) greater than 100 µM and a TGI (NCI-H460 lung) greater than 100 µM. The TGI (EKVX NSCLC) was greater than 100 µM, the TGI (MDA-MB-231 breast) was greater than 100 µM and the TGI (SNB-19 CNS) was greater than 100 µM. The TGI (HOP-92 NSCLC) was greater than 100 µM, the TGI (SF-539 CNS) was greater than 100 µM and the TGI (BT-549 breast) was greater than 100 µM.

With `O=C1C(Cl)C(c2cc3cc(Br)ccc3nc2Cl)N1c1ccc(Cl)cc1` (centres undefined) the TGI (HS 578T breast) was greater than 25 µM, the TGI (NCI/ADR-RES ovarian) was 16.7 µM and the TGI (SF-268 CNS) was 9.69 µM. The TGI (NCI-H460 lung) was 20.9 µM, the TGI (EKVX NSCLC) was 8.13 µM and the TGI (MDA-MB-231 breast) was 7.35 µM. It also gave a TGI (HCC-2998 colon) of 8.04 µM, a TGI (SNB-19 CNS) greater than 25 µM and a TGI (HOP-92 NSCLC) of 7.2 µM. For the same compound, the TGI (SF-539 CNS) was 9.41 µM and the TGI (BT-549 breast) was 11.6 µM.

`O=C(COc1ccc(Cl)c(Cl)c1)N(Cc1ccccc1)Cc1ccc[n+](Cc2ccc(Cl)cc2S(=O)(=O)F)c1` showed a TGI (HS 578T breast) greater than 100 µM, a TGI (NCI/ADR-RES ovarian) greater than 100 µM and a TGI (SF-268 CNS) greater than 100 µM. The TGI (NCI-H460 lung) was greater than 100 µM, the TGI (MDA-MB-231 breast) was 31.9 µM and the TGI (SNB-19 CNS) was greater than 100 µM. For the same compound, the TGI (HOP-92 NSCLC) was greater than 100 µM and the TGI (SF-539 CNS) was greater than 100 µM.

For `CC(C)(C)OC(=O)NC1CCC(C(C)(C)C)CC1` (centres undefined), the TGI (NCI/ADR-RES ovarian) was greater than 100 µM, the TGI (SF-268 CNS) was greater than 100 µM and the TGI (NCI-H460 lung) was greater than 100 µM. The TGI (EKVX NSCLC) was greater than 100 µM, the TGI (DLD-1 colon) was greater than 100 µM and the TGI (HCC-2998 colon) was greater than 100 µM. It also gave a TGI (SNB-19 CNS) greater than 100 µM, a TGI (P388/ADR leukemia) greater than 100 µM and a TGI (SF-539 CNS) greater than 100 µM.

For `Br/C(=N\Nc1nn[nH]n1)c1ccncc1`, the TGI (HS 578T breast) was greater than 100 µM, the TGI (NCI/ADR-RES ovarian) was greater than 100 µM and the TGI (SF-268 CNS) was greater than 100 µM. It also gave a TGI (NCI-H460 lung) greater than 100 µM, a TGI (EKVX NSCLC) greater than 100 µM and a TGI (MDA-MB-231 breast) greater than 100 µM. For the same compound, the TGI (SNB-19 CNS) was greater than 100 µM, the TGI (HOP-92 NSCLC) was greater than 100 µM and the TGI (SF-539 CNS) was greater than 100 µM. It also gave a TGI (BT-549 breast) greater than 100 µM.

For `CCCC(=O)O.CCCC(=O)O.CCCC(=O)O.CCCC(=O)O.[Rh].[Rh]`, the GI50 (HS 578T breast) was 0.157 µM, the TGI (HS 578T breast) was 13 µM and the GI50 (NCI/ADR-RES ovarian) was 0.185 µM. For the same compound, the TGI (NCI/ADR-RES ovarian) was 0.589 µM, the GI50 (NCI-H460 lung) was 0.165 µM and the TGI (NCI-H460 lung) was 0.327 µM. It also gave a GI50 (EKVX NSCLC) of 0.168 µM, a TGI (EKVX NSCLC) of 0.943 µM and a GI50 (MDA-MB-231 breast) of 0.0322 µM. For the same compound, the TGI (MDA-MB-231 breast) was 0.108 µM, the GI50 (HOP-92 NSCLC) was 0.211 µM and the TGI (HOP-92 NSCLC) was 0.476 µM. For the same compound, the GI50 (BT-549 breast) was 0.0314 µM and the TGI (BT-549 breast) was 0.101 µM.

`c1ccc(C[N+]23CN4CN(CN(C4)C2)C3)cc1` gave a TGI (HS 578T breast) greater than 100 µM, a TGI (NCI/ADR-RES ovarian) greater than 100 µM and a TGI (SF-268 CNS) of 85.8 µM. It also gave a TGI (NCI-H460 lung) greater than 100 µM, a TGI (EKVX NSCLC) greater than 100 µM and a TGI (MDA-MB-231 breast) of 49.8 µM. It also gave a TGI (HCC-2998 colon) of 39.9 µM, a TGI (SNB-19 CNS) of 71.2 µM and a TGI (HOP-92 NSCLC) of 70.2 µM. It also gave a TGI (SF-539 CNS) of 51.9 µM and a TGI (BT-549 breast) greater than 100 µM.

In the case of `O=C(Oc1ccc(Cl)cc1[N+](=O)[O-])c1ccccc1`, the TGI (SF-268 CNS) is reported as greater than 100 µM, the TGI (NCI-H460 lung) is reported as greater than 100 µM and the TGI (EKVX NSCLC) is reported as greater than 100 µM. It also gave a TGI (DLD-1 colon) greater than 100 µM, a TGI (HCC-2998 colon) greater than 100 µM and a TGI (SNB-19 CNS) greater than 100 µM. The TGI (HOP-92 NSCLC) was greater than 100 µM and the TGI (SF-539 CNS) was greater than 100 µM.

Compound `O=C1OC2CC=CC1C2` (centres undefined) has a TGI (NCI/ADR-RES ovarian) greater than 100 µM, a TGI (SF-268 CNS) greater than 100 µM and a TGI (NCI-H460 lung) greater than 100 µM. The TGI (EKVX NSCLC) was greater than 100 µM, the TGI (DLD-1 colon) was greater than 100 µM and the TGI (HCC-2998 colon) was greater than 100 µM. It also gave a TGI (SNB-19 CNS) greater than 100 µM, a TGI (HOP-92 NSCLC) greater than 100 µM and a TGI (P388/ADR leukemia) greater than 100 µM. For the same compound, the TGI (SF-539 CNS) was greater than 100 µM.
